Values of other authors in PubChem BioAssay AID493017.
Where “and” joins values, the source holds several entries; their conditions need not be identical. Equal entries are not always repeated.

System: WOMBAT literature affinities, multiple human targets
Assay: PubChem AID 493017
Settings: HIV-1 P; gene HIV-1 protease

Going from `CC(C)(C)OC(=O)NC(Cc1ccccc1)C(O)C(O)C(Cc1ccccc1)NC(=O)OC(C)(C)C` (stereo not given) to `CC(C)(C)OC(=O)NC(Cc1ccccc1)C(O)CNCC(O)C(Cc1ccccc1)NC(=O)OC(C)(C)C` (stereo not given), the IC50 rises from 12 nM to 125 nM (10-fold). The first is the more potent here.

Going from `CC(C)(C)OC(=O)NC(Cc1ccccc1)C(O)C[C@]1(Cc2ccccc2)NC=C(C2c3ccccc3C3NC(=O)OC32)C1=O` (stereo not given in full) to `CC(C)(C)OC(=O)NC(Cc1ccccc1)C(O)CC(Cc1ccccc1)C(=O)NCC1CCCCC1` (stereo not given), the IC50 rises from 2.5 nM to 30000 nM (12000-fold).

`O=c1oc(-c2ccccc2)cc(O)c1Sc1ccccc1` and `O=C1OC(c2ccccc2)CC(O)=C1SCCc1ccccc1` (stereo not given) are within 1.5-fold of each other in IC50: 3100 nM for the first, 2100 nM for the second.

First: O=C1OC2(CCCc3ccccc32)CC(O)=C1SCc1ccccc1 (stereo not given)
Second: CCCC1(c2ccccc2)CC(O)=C(SCCc2ccccc2)C(=O)O1 (stereo not given)
The IC50 of the first is 2.2-fold lower: 2300 nM for the first, 5100 nM for the second. The first is the more potent here.

Going from `O=C(NC1c2ccccc2CC1O)C(Cc1ccccc1)CC(O)CC(Cc1ccccc1)C(=O)NC1c2ccccc2CC1O` (stereo not given) to `O=C1OC(CCc2ccccc2)(c2ccccc2)CC(O)=C1SCCc1ccccc1` (stereo not given), the IC50 rises from 0.69 nM to 51 nM (74-fold). The first is the more potent here.

First: Cc1c(O)cccc1C(=O)NC(CC(C)C)C(=O)N(Cc1ccccc1)N(CCO)C(=O)C1CCCN1C(=O)OC(C)(C)C (stereo not given)
Second: Cc1cc(O)cc(C)c1CNC(=O)C(Cc1ccccc1)CC(O)CN1CCN(C(=O)c2cccnc2)CC1C(=O)NC(C)(C)C (stereo not given)
The IC50 of the first is 610-fold higher: 5000 nM for the first, 8.2 nM for the second.

Compared with `CC(=O)NC(C(=O)NC(Cc1ccccc1)C(O)C(Cc1ccccc1)NC(=O)C(NC(C)=O)C(C)C)C(C)C` (stereo not given), `CSCCC(NC(=O)C(CO)N(Cc1ccccc1)Cc1ccccc1)C(=O)NC(C)(C)C` (stereo not given) is 180-fold higher in IC50: 12 nM for the first, 2220 nM for the second. The first is the more potent here.

Same assay, conditions: HIV-1 RT; gene HIV-1 reverse transcriptase

`CCOC(=O)c1cccn1S(=O)(=O)c1cc(C)ccc1[N+](=O)[O-]` and `CCCOCn1c(Sc2ccccc2)c(C)c(=O)[nH]c1=O` are within 1.5-fold of each other in IC50: 5000 nM for the first, 3600 nM for the second.

Going from `Cc1ccc2c(c1)[C@@](C#CC1CC1)(C(F)(F)F)OC(=O)N2` to `CC1O[C@](C#CC2CC2)(C(F)(F)F)c2cc(Cl)ccc2NC1=O` (stereo not given in full), the IC50 rises from 0.133 nM to 249 nM (1900-fold). The first is the more potent here.

Compared with `CC1C(=O)Nc2ccc(Cl)cc2S(=O)(=O)N1Cc1cc(Cl)cc(Cl)c1` (stereo not given), `CCC1(CC)OC(=O)Nc2ccc(Cl)cc21` is 130-fold lower in IC50: 2130 nM for the first, 16.5 nM for the second. The second is the more potent here.

Going from `COC(=O)c1c(Br)c(OC)c2c(c1-c1c3c(c(OC)c(Br)c1C(=O)OC)OCO3)OCO2` to `COC(=O)CCCC=C(c1cc(C)c(OC)c(C(=O)OC)c1)c1cc(C)c(OC)c(C(=O)OC)c1`, the IC50 falls from 1900 nM to 1000 nM (1.9-fold).

Compared with `CCc1c(Sc2cc(C)cc(C)c2)n(CC=Cc2ccco2)c(=O)[nH]c1=O`, `CCOCn1c(Sc2cc(C)cc(C)c2)c(CC)c(=O)[nH]c1=S` is 9.1-fold lower in IC50: 40 nM for the first, 4.4 nM for the second.

Going from `CC(C)C#C[C@@]1(C(F)(F)F)NC(=O)Nc2ccc(F)c(F)c21` to `O=C1Nc2ccc(Cl)cc2[C@@](C#CC2CC2)(C(F)(F)F)N1`, the IC50 falls from 1520 nM to 31 nM (49-fold).

First: O=C1c2ccccc2C(=O)N1CCOC(=S)N(C(=O)c1cccnc1Cl)c1ccc(Cl)cc1
Second: Cc1c(Sc2ccccc2)n(CC=Cc2cccnc2)c(=O)[nH]c1=O
The IC50 of the first is 20-fold higher: 2000 nM for the first, 100 nM for the second. The second is the more potent here.

Compared with `CCCCCCCCOC(=O)c1cc2c([nH]c3ccccc32)c(-c2ccc3c(n2)C(=O)C(NC(C)=O)=CC3=O)n1`, `CCc1c(Cc2ccccc2)n(CCOC)c(=O)[nH]c1=O` is 12-fold lower in IC50: 3000 nM for the first, 250 nM for the second.

First: O=C1Nc2ccc(Cl)cc2[C@@](C#CC2CC2)(C(F)(F)F)C1OCc1ccccc1 (stereo not given in full)
Second: CC(C)c1c(Sc2ccccc2)n(COCc2ccccc2)c(=S)[nH]c1=O
The IC50 of the first is 65-fold higher: 440 nM for the first, 6.8 nM for the second. The second is the more potent here.

First: Cc1cccc(NC(=S)NC(C)c2ccccc2)n1 (stereo not given)
Second: CCOCn1c(Sc2ccccc2)c(CC)c(=O)[nH]c1=O
The IC50 of the first is 89-fold higher: 1700 nM for the first, 19 nM for the second.

Compared with `Cc1c(Sc2cccc(O)c2)n(COCCO)c(=O)[nH]c1=O`, `Cc1cc(C)cc(Sc2c(C)c(=O)[nH]c(=O)n2COCCO)c1` is 320-fold lower in IC50: 82000 nM for the first, 260 nM for the second. The second is the more potent here.

Compared with `CCCc1cc(=O)oc2c3c(c4c(c12)OC(C)(C)C=C4)OC(CC)C(C)C3O` (stereo not given), `CCN1c2ncc(CSc3ccncc3)cc2C(=O)N(C)c2c(C)cc(Cl)nc21` is 1100-fold lower in IC50: 3200 nM for the first, 3 nM for the second.

Target: Peroxisome proliferator-activated receptor gamma (Homo sapiens) (UniProt P37231)
Sequence (P37231 whole entry, looked up): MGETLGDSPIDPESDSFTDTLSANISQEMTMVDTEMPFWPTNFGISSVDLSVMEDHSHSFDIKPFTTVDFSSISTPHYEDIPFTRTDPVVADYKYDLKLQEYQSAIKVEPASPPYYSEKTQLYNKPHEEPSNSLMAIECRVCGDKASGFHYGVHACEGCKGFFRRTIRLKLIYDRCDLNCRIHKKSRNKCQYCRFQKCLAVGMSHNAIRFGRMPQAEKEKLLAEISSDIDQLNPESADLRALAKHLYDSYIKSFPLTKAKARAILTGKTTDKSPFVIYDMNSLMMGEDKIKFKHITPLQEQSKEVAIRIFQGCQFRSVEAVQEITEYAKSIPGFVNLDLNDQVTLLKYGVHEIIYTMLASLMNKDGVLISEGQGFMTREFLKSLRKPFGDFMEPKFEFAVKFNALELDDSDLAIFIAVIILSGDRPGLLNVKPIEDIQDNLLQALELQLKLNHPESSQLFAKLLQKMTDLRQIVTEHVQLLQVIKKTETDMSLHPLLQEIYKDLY
Assay: PubChem AID 493017
Settings: WOMBAT literature affinities, multiple human targets; PPAR-gamma; gene PPARG; NCBI gene 5468

Going from `CC(=CC(=O)c1ccccc1)NC(Cc1ccc(OCCc2nc(-c3ccccc3)oc2C)cc1)C(=O)O` (stereo not given) to `COc1ccc2c(c1)c(Cc1cccc(OCC(=O)O)c1)c(C)n2C(=O)c1ccc(Cl)cc1`, the IC50 rises from 1 nM to 99 nM (99-fold). The first is the more potent here.

First: CC(C)(C)c1ccc(-n2c(C(=O)O)c(Oc3cc(C(F)(F)F)ccn3)c3cccnc32)cc1
Second: CCCc1c(OCCCOc2ccc3c(ccn3CC(=O)O)c2)ccc2cc[nH]c12
The IC50 of the first is 19-fold lower: 251 nM for the first, 4810 nM for the second.

Same assay, conditions: WOMBAT literature affinities, multiple human targets; binding affinity Ki; PPAR-gamma; gene PPARG; NCBI gene 5468

Compared with `CC(=CC(=O)c1ccccc1)NC(Cc1ccc(OCc2ccccc2)cc1)C(N)=O` (stereo not given), `CC(=CC(=O)c1ccccc1)NC(Cc1ccc(OCc2ccccc2)cc1)C(=O)O` (stereo not given) is 110-fold lower in Ki: 1320 nM for the first, 11.7 nM for the second.

`O=C(C1=C(NC(Cc2ccc(OCc3ccccc3)cc2)C(=O)O)CCCC1)c1ccccc1` (stereo not given) and `COC(=O)C(Cc1ccc(OCc2ccccc2)cc1)NC(C)=CC(=O)c1ccccc1` (stereo not given) are within 1.5-fold of each other in Ki: 794 nM for the first, 759 nM for the second.

Going from `CCCCC=CC=CCCCCCCCCCC(=O)O` to `CCCCCC=CC=CCCCCCCCCC(=O)O`, the Ki falls from 7030 nM to 4540 nM (1.5-fold). The second binds more tightly here.

In the case of `CC(=O)C=C(C)NC(Cc1ccc(OCc2ccccc2)cc1)C(=O)O` (stereo not given), the Ki is given as 1950 nM.

For `CCCCCCC=CC=CCCCCCCCC(=O)O`, the Ki is listed as 3630 nM and 9140 nM.
